Reference: US5268374A, “Non-peptide renin inhibitors” (Abbott Laboratories, priority 1991, dated 1993)
pIC50: −log10 of the molar value. Values belong to the compound of their own block, whether it stands above or below them.

Legend:
[1] = Blood pressure in salt-depleted monkeys after oral dosing; assay type: in vivo, cynomolgous monkeys; conditions: 3 mg/kg oral
Text: (§1) The ability of the compounds of the invention to decrease blood pressure and plasma renin activity in vivo can be determined using the following method.
(§2) Male cynomolgous monkeys housed under constant temperature and lighting conditions and weighing 3-5 kg were instrumented with chronic indwelling arterial and venous catheters.

human renal renin = molecular target: T1, human renal renin (Homo sapiens, UniProt P00797); experiment: Inhibition of human renal renin in vitro (angiotensin I formation by radioimmunoassay); assay type: biochemical; conditions: human renal renin, 37 degrees C, pH 6.0; read-out: IC50
T1 construct: from tissue; host or cells: human kidney (read from the word 'renal'; no preparation is printed)
T1 sequence (P00797 67-406): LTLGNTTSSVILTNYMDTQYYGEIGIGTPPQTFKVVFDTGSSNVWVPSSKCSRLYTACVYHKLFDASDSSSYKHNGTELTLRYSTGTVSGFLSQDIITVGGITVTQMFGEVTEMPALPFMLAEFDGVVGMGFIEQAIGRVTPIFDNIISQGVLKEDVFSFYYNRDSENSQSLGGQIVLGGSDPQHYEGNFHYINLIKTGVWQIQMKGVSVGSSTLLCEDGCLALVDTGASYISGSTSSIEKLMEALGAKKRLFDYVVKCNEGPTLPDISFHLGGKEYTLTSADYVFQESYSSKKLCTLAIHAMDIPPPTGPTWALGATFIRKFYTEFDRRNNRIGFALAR

plasma renin = experiment: Plasma renin activity (PRA) in salt-depleted monkeys after oral dosing; assay type: in vivo, cynomolgous monkeys; conditions: 3 mg/kg oral
Text: as §1, §2

[2] = Mean of two monkeys, time 0 min

Structure (SMILES): CCCC[C@H](O[C@@H](Cc1ccccc1)C(=O)N1CCC(OCOC)CC1)C(=O)N[C@@H](CC1CCCCC1)[C@@H](O)C[C@H](C(=O)NCCCN1CCOCC1)C(C)C [Example 118, 2(S)-(1(S)-(4-(Methoxymethoxy)piperidin-1-yl)carbonyl-2-phenyl)ethoxyhexanoic acid amide of 3-(4-morpholinyl)propyl 5(S)-amino-6-cyclohexyl-4(S)-hydroxy-2(S)-isopropylhexanamide]
Blood pressure (BP) ([1]; Mean of two monkeys, 5 min): 117 mmHg | Blood pressure (BP) ([1]; Mean of two monkeys, 15 min): 111 mmHg | Blood pressure (BP) ([1]; Mean of two monkeys, 30 min): 112 mmHg | Blood pressure (BP) ([1]; Mean of two monkeys, 45 min): 104 mmHg | Blood pressure (BP) ([1]; Mean of two monkeys, 60 min): 109 mmHg | Blood pressure (BP) ([1]; Mean of two monkeys, 90 min): 98 mmHg | Blood pressure (BP) ([1]; Mean of two monkeys, 120 min): 94 mmHg | Blood pressure (BP) ([1]; Mean of two monkeys, 180 min): 94 mmHg | Blood pressure (BP) ([1]; Mean of two monkeys, 360 min): 99 mmHg | Blood pressure (BP) [1, 2]: 114 mmHg | Blood pressure (BP) ([1]; Monkey 1, 5 min): 112 mmHg | Blood pressure (BP) ([1]; Monkey 1, 15 min): 105 mmHg | Blood pressure (BP) ([1]; Monkey 1, 30 min): 113 mmHg | Blood pressure (BP) ([1]; Monkey 1, 45 min): 95 mmHg | Blood pressure (BP) ([1]; Monkey 1, 60 min): 102 mmHg | Blood pressure (BP) ([1]; Monkey 1, 90 min): 90 mmHg | Blood pressure (BP) ([1]; Monkey 1, 120 min): 84 mmHg | Blood pressure (BP) ([1]; Monkey 1, 180 min): 84 mmHg | Blood pressure (BP) ([1]; Monkey 1, 360 min): 94 mmHg | Blood pressure (BP) ([1]; Monkey 1, time 0 min): 107 mmHg | Blood pressure (BP) ([1]; Monkey 2, 5 min): 121 mmHg | Blood pressure (BP) ([1]; Monkey 2, 15 min): 117 mmHg | Blood pressure (BP) ([1]; Monkey 2, 30 min): 110 mmHg | Blood pressure (BP) ([1]; Monkey 2, 45 min): 112 mmHg | Blood pressure (BP) ([1]; Monkey 2, 60 min): 115 mmHg | Blood pressure (BP) ([1]; Monkey 2, 90 min): 106 mmHg | Blood pressure (BP) ([1]; Monkey 2, 120 min): 103 mmHg | Blood pressure (BP) ([1]; Monkey 2, 180 min): 103 mmHg | Blood pressure (BP) ([1]; Monkey 2, 360 min): 103 mmHg | Blood pressure (BP) ([1]; Monkey 2, time 0 min): 120 mmHg | pIC50 (human renal renin): 9.08 | Plasma Renin Activity (PRA) (plasma renin; Mean of two monkeys, 5 min): 9.7 ng/mL/h | Plasma Renin Activity (PRA) (plasma renin; Mean of two monkeys, 15 min): 1.5 ng/mL/h | Plasma Renin Activity (PRA) (plasma renin; Mean of two monkeys, 30 min): 0.4 ng/mL/h | Plasma Renin Activity (PRA) (plasma renin; Mean of two monkeys, 45 min): 0.2 ng/mL/h | Plasma Renin Activity (PRA) (plasma renin; Mean of two monkeys, 60 min): 0.2 ng/mL/h | Plasma Renin Activity (PRA) (plasma renin; Mean of two monkeys, 90 min): 0.0 ng/mL/h | Plasma Renin Activity (PRA) (plasma renin; Mean of two monkeys, 120 min): 0.3 ng/mL/h | Plasma Renin Activity (PRA) (plasma renin; Mean of two monkeys, 180 min): 0.3 ng/mL/h | Plasma Renin Activity (PRA) (plasma renin; Mean of two monkeys, 360 min): 0.2 ng/mL/h | Plasma Renin Activity (PRA) (plasma renin; [2]): 23.9 ng/mL/h | Plasma Renin Activity (PRA) (plasma renin; Monkey 1, 5 min): 5.8 ng/mL/h | Plasma Renin Activity (PRA) (plasma renin; Monkey 1, 15 min): 0.1 ng/mL/h | Plasma Renin Activity (PRA) (plasma renin; Monkey 1, 30 min): 0.4 ng/mL/h | Plasma Renin Activity (PRA) (plasma renin; Monkey 1, 45 min): 0.0 ng/mL/h | Plasma Renin Activity (PRA) (plasma renin; Monkey 1, 60 min): 0.0 ng/mL/h | Plasma Renin Activity (PRA) (plasma renin; Monkey 1, 90 min): 0.0 ng/mL/h | Plasma Renin Activity (PRA) (plasma renin; Monkey 1, 120 min): 0.2 ng/mL/h | Plasma Renin Activity (PRA) (plasma renin; Monkey 1, 180 min): 0.2 ng/mL/h | Plasma Renin Activity (PRA) (plasma renin; Monkey 1, 360 min): 0.0 ng/mL/h | Plasma Renin Activity (PRA) (plasma renin; Monkey 1, time 0 min): 29.1 ng/mL/h | Plasma Renin Activity (PRA) (plasma renin; Monkey 2, 5 min): 13.5 ng/mL/h | Plasma Renin Activity (PRA) (plasma renin; Monkey 2, 15 min): 2.9 ng/mL/h | Plasma Renin Activity (PRA) (plasma renin; Monkey 2, 30 min): 0.4 ng/mL/h | Plasma Renin Activity (PRA) (plasma renin; Monkey 2, 45 min): 0.3 ng/mL/h | Plasma Renin Activity (PRA) (plasma renin; Monkey 2, 60 min): 0.3 ng/mL/h | Plasma Renin Activity (PRA) (plasma renin; Monkey 2, 90 min): 0.0 ng/mL/h | Plasma Renin Activity (PRA) (plasma renin; Monkey 2, 120 min): 0.4 ng/mL/h | Plasma Renin Activity (PRA) (plasma renin; Monkey 2, 180 min): 0.4 ng/mL/h | Plasma Renin Activity (PRA) (plasma renin; Monkey 2, 360 min): 0.3 ng/mL/h | Plasma Renin Activity (PRA) (plasma renin; Monkey 2, time 0 min): 18.7 ng/mL/h

pIC50 (human renal renin): 8.42
Structure (SMILES): CCCC[C@H](O[C@@H](Cc1ccccc1)C(=O)N1CCC(OCOC)CC1)C(=O)N[C@@H](CC(C)C)[C@@H](O)CC(=O)NCC(C)CC (stereo partly drawn) [Example 180]

pIC50 (human renal renin): 8.74
Structure (SMILES): CCCC[C@H](N[C@@H](Cc1ccccc1)C(=O)N1CCC(OCOC)CC1)C(=O)N[C@@H](CC1CCCCC1)[C@H](O)CC(C(=O)N[C@H](C(=O)NCc1ccccn1)[C@@H](C)CC)C(C)C (stereo partly drawn) [Example 181]
